From paper PMC11784839, “Monoaminergic neurotransmitters are bimodal effectors of tau aggregation” (Science Advances, 2025)

Biological target: tau (Homo sapiens, UniProt P10636)
Test: MCE Phenols Library screening, tau biosensor cell seeding assay (AvZ)
Type: cell-based
Settings: for Z repl 1 / Z Repl 2: Z score; for Z repl 1 / raw data 1: replicate 1; for Z Repl 2 / raw data 2: replicate 2; for AvZ (average z score of seeding, SDs from the mean level of seeding): 10 μM phenol in cell cultures, AD brain homogenate preincubated 16 hours, two biological replicates, positive = catalyzes seeding, negative = inhibits
[1] = average Z score of the two replicates, tau seeding
[2] = average Z score of the two replicates, MCE Phenols Library screen
[3] = average puncta of the two replicates
[4] = average Z score of two replicates, Phenols Library screen

Sequence of tau (P10636 623-695 limits assumed): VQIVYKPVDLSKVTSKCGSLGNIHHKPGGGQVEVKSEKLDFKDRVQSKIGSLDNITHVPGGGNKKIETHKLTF

| Compound | Z repl 1 | Z Repl 2 | av Z [1] | av puncta (average of raw data 1 and 2) | raw data 1 (puncta) | raw data 2 (puncta) | av Z [2] | av puncta [3] | raw data 1 (raw puncta) | raw data 2 (raw puncta) | av Z [4] | AvZ (average z score of seeding, SDs from the mean level of seeding) | av Z (average Z score of the two replicates, tau biosensor seeding, MCE Phenols Library screen) | AvZ (average z score of seeding, SDs from the mean level of seeding) (listed as sinapine) |
| --- | --- | --- | --- | --- | --- | --- | --- | --- | --- | --- | --- | --- | --- | --- |
| C[C@@H]1O[C@@H](O[C@H]2[C@H](Oc3cc(O)c4c(=O)cc(-c5ccc(O)cc5)oc4c3)O[C@H](CO)[C@@H](O)[C@@H]2O)[C@H](O)[C@H](O)[C@H]1O [Rhoifolin] | 0.9 | -0.094 | 0.403 | 24460.4 | 37158.3 | 11762.4 | – | – | – | – | – | – | – | – |
| O=c1c(O)c(-c2cc(O)c(O)c(O)c2)oc2cc(O)ccc12 [Robinetin] | -0.499 | -0.831 | – | – | 20360.8 | 3888.25 | -0.665 | 12124.5 | – | – | – | – | – | – |
| CC1OC(OCC2OC(Oc3c(-c4ccc(O)cc4)oc4cc(OC5OC(C)C(O)C(O)C5O)cc(O)c4c3=O)C(O)C(O)C2O)C(O)C(O)C1O (stereo not shown) [Robinin] | 0.02 | -0.843 | – | – | – | – | -0.411 | 15180.1 | 26593.3 | 3766.89 | – | – | – | – |
| COc1c2ccoc2nc2c(O)cccc12 [Robustine] | 0.29 | 0.728 | 0.509 | 25188.7 | 29833.7 | 20543.7 | – | – | – | – | – | – | – | – |
| CC(=O)c1c(O)c(C)c(O)c(Cc2c(O)c3c(c(C(=O)/C=C/c4ccccc4)c2O)OC(C)(C)C=C3)c1O [Rottlerin] | 0.296 | 1.083 | 0.69 | 27122.4 | 29908.4 | 24336.4 | – | – | – | – | – | – | – | – |
| COc1ccc(-c2oc3c(CC=C(C)C)c(O)cc(O)c3c(=O)c2O[C@@H]2O[C@@H](C)[C@H](O)[C@@H](O)[C@H]2O[C@@H]2O[C@H](CO)[C@@H](O)[C@H](O)[C@H]2O)cc1 [Sagittatoside A] | -0.371 | -0.506 | – | – | – | – | -0.438 | 14630.2 | 21894.6 | 7365.88 | – | – | – | – |
| COc1cc(O)c2c(c1)O[C@H](c1ccc(O)cc1)CC2=O [Sakuranetin] | 0.003 | -0.01 | – | 19521.3 | 26379.5 | 12663.1 | – | – | – | – | -0.004 | – | – | – |
| OCc1ccccc1O [Salicyl alcohol] | -0.325 | -0.555 | – | – | – | – | – | 14639.5 | 22445.8 | 6833.28 | – | -0.44 | – | – |
| O=C(O)c1ccccc1O [Salicylic acid, reference compound] | -1.015 | -0.017 | – | – | 14164.1 | 12581.6 | – | 13372.8 | – | – | – | -0.516 | – | – |
| O=C(/C=C/c1ccc(O)c(O)c1/C=C/c1ccc(O)c(O)c1)O[C@H](Cc1ccc(O)c(O)c1)C(=O)O [Salvianolic acid A] | -2.14 | -1.185 | – | 383.467 | 661.17 | 105.765 | -1.663 | – | – | – | – | – | – | – |
| O=C(/C=C/c1ccc(O)c2oc(-c3ccc(O)c(O)c3)cc12)O[C@H](Cc1ccc(O)c(O)c1)C(=O)O [Salvianolic acid C] | -1.645 | -1.179 | – | 3386.53 | 6602.17 | 170.893 | -1.412 | – | – | – | – | – | – | – |
| COc1cc2c(c(O)c1OC)-c1c(cc(OC)c(OC)c1OC)C[C@@H](C)[C@@H](C)C2 [Schisanhenol] | -0.397 | -0.108 | – | – | – | – | -0.253 | 16597.3 | 21578.6 | 11616.1 | – | – | – | – |
| O=c1cc(-c2ccc(O)cc2)oc2cc(O)c(O)c(O)c12 [Scutellarein] | -0.619 | -1.142 | – | 9747.69 | 18922.2 | 573.179 | -0.88 | – | – | – | – | – | – | – |
| O=C(O)[C@H]1O[C@@H](Oc2cc3oc(-c4ccc(O)cc4)cc(=O)c3c(O)c2O)[C@H](O)[C@@H](O)[C@@H]1O [Scutellarin] | -1.927 | -0.903 | – | 3169.77 | 3217.73 | 3121.8 | -1.415 | – | – | – | – | – | – | – |
| COc1cc(C[C@@H](CO)[C@H](CO)Cc2ccc(O)c(OC)c2)ccc1O [Secoisolariciresinol] | 1.372 | 0.426 | – | 30068 | 42819.5 | 17316.5 | – | – | – | – | – | – | 0.899 | – |
| O=C(O)c1cc(O)c2c(c1)[C@H]([C@H]1c3cccc(O)c3C(=O)c3c(O)cc(C(=O)O)cc31)c1cccc(O)c1C2=O [Sennidin B] | 0.553 | -0.073 | 0.24 | 22482.9 | 32984.9 | 11981 | – | – | – | – | – | – | – | – |
| O=C(O)c1cc(O)c2c(c1)[C@H]([C@H]1c3cc(C(=O)O)cc(O)c3C(=O)c3c(O[C@@H]4O[C@H](CO)[C@@H](O)[C@H](O)[C@H]4O)cccc31)c1cccc(O[C@@H]3O[C@H](CO)[C@@H](O)[C@H](O)[C@H]3O)c1C2=O [Sennoside A] | -1.043 | -0.801 | – | 9021.29 | 13826.4 | 4216.17 | -0.922 | – | – | – | – | – | – | – |
| Oc1ccc2c(c1)OCO2 [Sesamol] | -0.018 | -1.03 | – | – | 26133.2 | 1763.04 | -0.524 | 13948.1 | – | – | – | – | – | – |
| COc1cc(/C=C/C(=O)O[C@H]2[C@H](O)[C@@H](CO)O[C@@]2(CO)O[C@H]2O[C@H](CO)[C@@H](O)[C@H](O)[C@H]2O)ccc1O [Sibiricose A5] | -0.765 | -0.196 | – | – | 17163.5 | 10668.8 | -0.481 | 13916.2 | – | – | – | – | – | – |
| COc1cc([C@@H]2Oc3c(O)cc([C@H]4Oc5cc(O)cc(O)c5C(=O)[C@@H]4O)cc3[C@H]2CO)ccc1O [Silychristin] | 0.429 | -0.406 | – | 19966.5 | 31503 | 8429.95 | – | – | – | – | 0.012 | – | – | – |
| COc1cc(/C=C/C=O)cc(OC)c1O [Sinapaldehyde] | 0.021 | 0.172 | – | 20601.9 | 26603.6 | 14600.1 | – | – | – | – | – | 0.096 | – | – |
| COc1cc(/C=C/C(=O)OCC[N+](C)(C)C)cc(OC)c1O.N#C[S-] [Sinapine (thiocyanate)] | 0.104 | -0.095 | – | 19676.8 | 27602.3 | 11751.4 | – | – | – | – | – | 0.005 | – | – |
| COc1cc(/C=C/C(=O)OCC[N+](C)(C)C)cc(OC)c1O [Sinapine] | -0.962 | -0.305 | – | – | 14803.5 | 9509.32 | – | 12156.4 | – | – | – | -0.633 | – | −0.633 |
| COC1=C[C@@H]2[C@@H]3Cc4ccc(OC)c(O)c4[C@]2(CCN3C)CC1=O.Cl [Sinomenine hydrochloride] | -0.595 | 0.066 | – | – | – | – | -0.264 | 16340.1 | 19209.2 | 13470.9 | – | – | – | – |
| C=C(C)[C@H](CC=C(C)C)Cc1c(O)cc(O)c2c1O[C@H](c1ccc(O)cc1O)CC2=O [Sophoraflavanone G] | -0.704 | -0.412 | – | – | 17897.8 | 8362.49 | -0.558 | 13130.1 | – | – | – | – | – | – |
| O=c1c(O)c(-c2ccc(O[C@@H]3O[C@H](CO)[C@@H](O)[C@H](O)[C@H]3O)c(O)c2)oc2cc(O)cc(O)c12 [Spiraeoside] | -1.012 | -0.12 | – | – | 14202.4 | 11481.5 | -0.566 | 12842 | – | – | – | – | – | – |
| COc1cc(O)c2c(=O)c3c(O[C@@H]4O[C@H](CO)[C@@H](O)[C@H](O)[C@H]4O)ccc(O)c3oc2c1 [Swertianolin] | -0.114 | 0.052 | – | 19147.5 | 24974.7 | 13320.3 | – | – | – | – | -0.031 | – | – | – |
| COc1cc(C=O)cc(OC)c1O [Syringaldehyde] | 0.142 | -0.778 | – | – | – | – | – | 16255.1 | 28055.2 | 4454.92 | – | -0.318 | – | – |
| COc1cc(C(=O)O)cc(OC)c1O [Syringic acid] | 0.138 | 0.027 | – | 20525.8 | 28000.6 | 13051.1 | – | – | – | – | – | 0.082 | – | – |
| COc1ccc(-c2oc3cc(O)cc(O)c3c(=O)c2O)cc1O [Tamarixetin] | -0.357 | -0.633 | – | – | 22060 | 6006.83 | -0.495 | 14033.4 | – | – | – | – | – | – |
